Test results as given in the OPERA property sets (Mansouri et al. 2018).

Conditions: for log10 BCF / log10 biotransformation half-life (days): fish

| Compound | boiling point | melting point | other results |
| --- | --- | --- | --- |
| CCC(=O)Nc1ccc(Cl)c(Cl)c1 | 351 °C | 92 °C | log10 Koc (L/kg): 2.17; log10 vapour pressure (mmHg): -6.04; ready biodegradability: readily biodegradable; log10 BCF: 1.84 |
| c1ccc(COc2ccc3[nH]ccc3c2)cc1 | – | 102 °C | – |
| O=C(O)c1ccc(C(=O)O)nc1 | – | 254 °C | ready biodegradability: not readily biodegradable; log10 BCF: 0.76 |
| C=CC[C@H](O)CCC | 152 °C | – | – |
| Clc1ccc(-c2cccc(Cl)c2Cl)cc1 | – | – | log10 Henry constant (atm·m³/mol): -3.85; log10 biotransformation half-life (days): 2.16 |
| CCCOC(=O)C(C)C | 135 °C | – | log10 vapour pressure (mmHg): 0.924 |
| COc1ccc(-c2ccccc2)cc1 | – | 90 °C | – |
| OC1CCCCCCCCCCCCCC1 | – | 80.5 °C | – |
| COc1ccc(I)cc1 | 238 °C | 53 °C | – |
| ClC(Br)C(Cl)Br (centres undefined) | 195 °C | -26 °C | – |
| CCC(=O)O[C@H]1CC[C@@]2(C)C(=CC[C@H]3[C@@H]4CC[C@H](OC(=O)CC)[C@@]4(C)CC[C@@H]32)C1 | – | 113 °C | – |
| CO[C@H]1[C@H](O)[C@H](O[C@H]2CC[C@@]3(C=O)[C@H](CC[C@@H]4[C@@H]3CC[C@]3(C)[C@@H](C5=CC(=O)OC5)CC[C@]43O)C2)O[C@@H](C)[C@@H]1O | – | 162 °C | – |
| Cc1ccc(NO)cc1 | – | 96 °C | – |
| C=C[C@H]1C[N@@]2CC[C@H]1C[C@H]2C12Nc3ccccc3C1(O)CCO2 (some centres undefined) | – | 186 °C | – |
| C=C=C(C)CC | 70 °C | – | – |
| OCC(F)F | 95.5 °C | -28.2 °C | – |
| CCCn1cnc2c1c(=O)n(CCCCC(C)=O)c(=O)n2C | – | 69 °C | – |
| O=S(=O)(O)CS(=O)(=O)O | – | 98 °C | – |
| COc1cc(O)c(C=O)c(OC)c1 | – | 70 °C | – |
| C=COC=C | 28.3 °C | -101 °C | log10 vapour pressure (mmHg): 2.83 |
| CC(C)[C@H](C(=O)OC(C#N)c1cccc(Oc2ccccc2)c1)c1ccc(OC(F)F)cc1 (some centres undefined) | – | – | log10 Koc (L/kg): 5; log10 vapour pressure (mmHg): -8.06 |

| Compound | boiling point | melting point | other results |
| --- | --- | --- | --- |
| CC(C)c1ccc(O)cc1 | 230 °C | 62.3 °C | log10 vapour pressure (mmHg): -1.34 |
| CC(C)OCCO | 145 °C | – | log10 Henry constant (atm·m³/mol): -6.04; ready biodegradability: not readily biodegradable |
| Nc1ccc(F)cc1 | 182 °C | -0.8 °C | – |
| Nc1ccc(-c2ccc(Cl)cc2)cc1 | – | 134 °C | – |
| C[C@]12COC(=O)C[C@@H]1CC[C@@H]1[C@@H]2CC[C@@]2(C)[C@H]1CC[C@]2(C)O | – | 236 °C | – |
| Cl[Si](Cl)(c1ccccc1)c1ccccc1 | 305 °C | – | ready biodegradability: not readily biodegradable |
| C[C@@H]1CCC[C@H](C)C1 (racemic) | – | -82.8 °C | – |
| COc1cc(OC)c(OC)cc1C=O | – | 114 °C | – |
| COc1ccc(C(=O)O)cc1O | – | 252 °C | – |
| CCC(C)(C)C(=O)O[C@H]1C[C@@H](C)C=C2C=C[C@H](C)[C@H](CC[C@@H]3C[C@@H](O)CC(=O)O3)[C@H]21 | – | 136 °C | – |
| CC(=O)c1ccc(O)cc1O | – | 146 °C | – |
| Nc1cc(N)nc(N)n1 | – | 250 °C | – |
| CC=C1CC2C=CC1C2 (centres undefined) | 146 °C | – | ready biodegradability: not readily biodegradable; log10 BCF: 2.04; log10 biotransformation half-life (days): -0.56 |
| CC(=O)Nc1ccccc1O | – | 208 °C | ready biodegradability: readily biodegradable |
| C/C=C/c1cc2c(c(=O)o1)C(=O)[C@@H](O)[C@H](C)O2 | – | 222 °C | – |
| C[C@@H]1[C@@H](c2ccc(Cl)cc2)SC(=O)N1C(=O)NC1CCCCC1 (single isomer, unassigned) | – | 108 °C | log10 Koc (L/kg): 3.79; log10 vapour pressure (mmHg): -7.59 |
| CCOc1ccc(NC(C)=O)cc1 | 244 °C | 138 °C | log10 Koa: 9.59; log10 vapour pressure (mmHg): -6.16; ready biodegradability: not readily biodegradable; log10 BCF: 1.48; log10 biotransformation half-life (days): -0.55 |
| Nc1ccc(C(=O)N[C@@H](CCC(=O)O)C(=O)O)cc1 | – | 173 °C | – |
| CCCCCCCCCCCCC | 235 °C | -5.3 °C | log10 biodegradation half-life (days): 1.08; log10 vapour pressure (mmHg): -1.25; ready biodegradability: readily biodegradable; log10 biotransformation half-life (days): 1.03 |
| CC1(C)CC(NCCCCCCNC2CC(C)(C)NC(C)(C)C2)CC(C)(C)N1 | – | 64 °C | – |
| CC(O)COC(C)COC(C)CO (centres undefined) | – | – | ready biodegradability: not readily biodegradable |

| Compound | boiling point | melting point | other results |
| --- | --- | --- | --- |
| O=C(O)CC(O)(CC(=O)O)C(=O)O | – | 153 °C | log10 vapour pressure (mmHg): -7.78; ready biodegradability: readily biodegradable |
| CCCCOC(=O)CCCC | 186 °C | -92.8 °C | – |
| CC1CC(C)CC(C)C1 (mixture of isomers) | 141 °C | – | – |
| CC(Cl)C(=O)CCl (centres undefined) | 166 °C | – | – |
| C1CCCC1 | 49.3 °C | -93.8 °C | log10 Henry constant (atm·m³/mol): -0.818; log10 biodegradation half-life (days): 1.7; log10 vapour pressure (mmHg): 2.5 |
| CCC(O)C(C)(C)C (centres undefined) | 135 °C | -5 °C | – |
| CC(C)CCCl | 98.9 °C | -104 °C | – |
| C=CCCC#N | 140 °C | – | – |
| C=CCN=C=O | 88 °C | – | – |
| CCCN=C=S | 153 °C | – | – |
| Oc1ccc([C@H](O)[C@H]2CCCCN2)cc1O | – | 204 °C | – |
| CCOCOc1ccc(C(=O)Nc2cccc(Cl)c2Cl)cc1 | – | 92.5 °C | – |
| CCc1ccccc1[N+](=O)[O-] | 232 °C | -12.3 °C | ready biodegradability: not readily biodegradable; log10 BCF: 1.11; log10 biotransformation half-life (days): -0.56 |
| Cc1c(F)cccc1Cl | 154 °C | – | – |
| CNC(=O)Nc1cccc(Cl)c1 | – | – | log10 Koc (L/kg): 1.93 |
| COCC(F)F | 48.5 °C | – | log10 vapour pressure (mmHg): 2.48 |
| COc1cc(OC)nc(N=C(O)NS(=O)(=O)c2c(Cl)nc3ccccn23)n1 | – | – | log10 vapour pressure (mmHg): -9.47 |
| CCCCCN1CCCCC1 | 198 °C | – | – |
| CCOC(=O)NC | 170 °C | – | log10 vapour pressure (mmHg): -0.0435 |
